Measured values: patent publication US7202084B2, “Beta-alanine N-methyltransferase” (University of Florida Research Foundation, Inc., priority 2001, dated 2007)
Blank lines part the entries; values can stand above or below the molecule they belong to.

Experiments:
L. latifolium NMTase [1] = target: T1, L. latifolium NMTase (Limonium latifolium, UniProt Q84N56); assay: Kinetic characterization of NMTase, radiometric assay; format: biochemical
T1 sequence (Q84N56 1-375): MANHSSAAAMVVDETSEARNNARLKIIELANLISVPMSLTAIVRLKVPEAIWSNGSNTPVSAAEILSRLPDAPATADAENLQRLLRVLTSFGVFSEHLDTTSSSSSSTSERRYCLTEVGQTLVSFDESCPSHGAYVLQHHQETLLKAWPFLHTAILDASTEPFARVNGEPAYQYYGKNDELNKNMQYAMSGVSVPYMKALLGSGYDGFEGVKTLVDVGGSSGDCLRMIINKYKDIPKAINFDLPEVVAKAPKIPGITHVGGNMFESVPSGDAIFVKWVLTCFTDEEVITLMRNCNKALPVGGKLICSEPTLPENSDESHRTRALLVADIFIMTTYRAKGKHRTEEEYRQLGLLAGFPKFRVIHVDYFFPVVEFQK
Method: Enzyme Assay. […] Following incubation at 30° C. for 30 minutes, the reactions were stopped by the addition of 10 μL of 10% (w/v) trichloroacetic acid containing 1 mM of methylated products as unlabeled carrier. Activated charcoal (38 mg.ml^-1) in 0.1 N acetic acid, 250 μL per assay, was added and centrifuged for five minutes. The radioactive product in the supernatant was quantified in 75% Ready Gel using a liquid scintillation counter (Beckman Instruments, Fullerton, Calif.). […] Kinetic Characterization. […] Kinetic constants were derived from the X and Y intercepts of a linear plot of s/v versus s drawn from triplicate assay results. Henderson, P J F (1993) Statistical analysis of enzyme kinetic data. In […]., Enzyme assays a practical approach, IRL Press, Oxford, pp. 276-316.

L. latifolium NMTase [2] = target: T1, L. latifolium NMTase; assay: Effect of a thiol reagent on NMTase activities; format: biochemical; conditions: for % Activity DM: N,N-dimethyl β-alanine as methyl acceptor; for % Activity DM / % Activity MM / % Activity BA: mean ± SE, n=3; for % Activity MM: N-methyl β-alanine as methyl acceptor; for % Activity BA: β-alanine as methyl acceptor
Method: Enzyme Assay. […] The assay mixture contained 54 μL of enzyme preparation in a total volume of 100 μL containing 0.1 M Tris-HCl buffer pH 8.0, 2 mM DTT, 10 mM methyl acceptor, 100 μM AdoMet and 0.027 μM S-Adenosyl-L-[methyl-^3H]Met (200 nCi of radioactivity). Following incubation at 30° C. for 30 minutes, the reactions were stopped by the addition of 10 μL of 10% (w/v) trichloroacetic acid containing 1 mM of methylated products as unlabeled carrier. Activated charcoal (38 mg.ml^−1) in 0.1 N acetic acid, 250 μL per assay, was added and centrifuged for five minutes. The radioactive product in the supernatant was quantified in 75% Ready Gel using a liquid scintillation counter (Beckman Instruments, Fullerton, Calif.). The counting efficiency was 30%.
Effect of a Thiol Reagent. Protein purified using PEG precipitation was assayed with or without added DTT in the presence and absence of the thiol reagent p-hydroxymercuribenzoic acid.

[3] = 0.2 mM pHMB 10 min + 5 mM DTT for 30 min, relative to control
[4] = Minus DTT plus 0.2 mM pHMB, relative to control with 5 mM DTT

Concentration above which substrate inhibition was exhibited (L. latifolium NMTase [1]; at 10 mM β-alanine): above 200 μM
SMILES: C[S+](CC[C@H](N)C(=O)[O-])C[C@H]1O[C@@H](n2cnc3c(N)ncnc32)[C@H](O)[C@@H]1O (stereo partly drawn) [Ado-Met, S-adenosyl-L-methionine]

Inhibition of NMTase (in words) (L. latifolium NMTase [1]): highly inhibitory
IC50 (L. latifolium NMTase [1]; read-out: Concentration giving 50% inhibition of NMTase, 10 mM β-alanine and 100 μM Ado-Met): 40 µM
SMILES: Nc1ncnc2c1ncn2[C@@H]1O[C@H](CSCC[C@H](N)C(=O)O)[C@@H](O)[C@H]1O [AdoHCy, S-adenosyl-L-homocysteine]

SMILES: O=C(O)c1cc[c]([Hg+])cc1.[OH-] [pHMB, p-hydroxymercuribenzoate]
Inhibition of NMTase (in words) (L. latifolium NMTase [2]): highly inhibited
Reversibility of the inhibition by DTT (L. latifolium NMTase [2]): partially reversible
% Activity DM (L. latifolium NMTase [2]; [3]): 55.2 ± 7.6%
% Activity MM (L. latifolium NMTase [2]; [3]): 23.0 ± 2.9%
% Activity BA (L. latifolium NMTase [2]; [3]): 22.6 ± 2.9%
% Activity DM (L. latifolium NMTase [2]; [4]): 0.4 ± 0.2%
% Activity MM (L. latifolium NMTase [2]; [4]): 2.4 ± 1.4%
% Activity BA (L. latifolium NMTase [2]; [4]): 1.3 ± 0.7%
